# Assay results as given in patent US11352350B2, “IRAK degraders and uses thereof” (Kymera Therapeutics, Inc., priority 2018, dated 2022).
# Experiments:
# IRAK4 [1] = target: T1, IRAK4 (Homo sapiens (Human), UniProt Q9NWZ3); experiment: IRAK4 MSD degradation in OCI-LY10; assay type: cell-based; details: OCI-LY10, 4 hrs; read-out: IRAK4 MSD degradation in OCI-LY10 at 4 hrs: DC50
# How it was run: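 Remaining IRAK4 quantified by electrochemiluminescent MSD sandwich assay with two anti-IRAK4 antibodies. Compounds were dosed as 8 concentrations in 1:3 steps from a 1 to 10 μM final top on OCI-LY10 cells, incubated 4 to 24 h at 37° C. under 5% CO2. DC50 fitted with a three-parameter logistic curve.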
# IL-6 = IL-6 secretion in hPBMC using R848 stimulation; assay type: cell-based, human; details: Homo sapiens, 20 h, hPBMC, R848 as stim, t = 20 h
# IRAK4 [2] = target: T1, IRAK4; experiment: hPBMC IRAK4 degradation flow assay; assay type: cell-based; details: hPBMC monocyte
# Method: hPBMC IRAK4 degradation flow assay. Frozen PBMCs were thawed into RPMI with 10% FBS and allowed to recover. On the same day as thawed, PBMCs were plated in 96 well plate, 90 uL per well. Compound plates were prepared and a 10 point, 5-fold dilution was performed with a final DMSO concentration of 0.1%. Compound 10 μL per well was added, sealed and incubated at 37° C., 5% C02 for 20 hours (for 4 hour treatment, compounds were prepared and added the following day). […] Cells were spun down and washed two times with PBS/0.5% BSA, aspirated to pellet and placed into −80° C. freezer until further processing for flow. On the flow run day, PBMC plates were thawed and samples were transferred to PCR plates. The pre-perm staining cocktail (CD3 Ax488/CD8 BUV805/CD14 BUV395/CD16/56 BV711/CD19 BV785) was added to samples and incubated for 30 minutes at room temperature. Samples were washed two times and permeabilized with methanol for 10 minutes at 4° C. […] Samples were washed two times with PBS/BSA and run on a BD LSRFortessa. Mononuclear cells are gated by SSCH/FSCH and single cells. Monocytes are then gated through CD14 positive gate and lymphocytes are gated through CD14 negative gate. To determine absolute DC50s and max degradation values, MFI values were normalized to DMSO max and 20 hour 10 μM min control. Twenty hour dose curves were calculated using a 4 parameter logistic regression curve fit, no constraints (Top doses were removed if hook effects were observed and the bottom was constrained to 0).
# [3] = 20 hrs, read-out: IRAK4 degradation in hPBMC monocyte: DC50
# T1 sequence (Q9NWZ3 whole entry): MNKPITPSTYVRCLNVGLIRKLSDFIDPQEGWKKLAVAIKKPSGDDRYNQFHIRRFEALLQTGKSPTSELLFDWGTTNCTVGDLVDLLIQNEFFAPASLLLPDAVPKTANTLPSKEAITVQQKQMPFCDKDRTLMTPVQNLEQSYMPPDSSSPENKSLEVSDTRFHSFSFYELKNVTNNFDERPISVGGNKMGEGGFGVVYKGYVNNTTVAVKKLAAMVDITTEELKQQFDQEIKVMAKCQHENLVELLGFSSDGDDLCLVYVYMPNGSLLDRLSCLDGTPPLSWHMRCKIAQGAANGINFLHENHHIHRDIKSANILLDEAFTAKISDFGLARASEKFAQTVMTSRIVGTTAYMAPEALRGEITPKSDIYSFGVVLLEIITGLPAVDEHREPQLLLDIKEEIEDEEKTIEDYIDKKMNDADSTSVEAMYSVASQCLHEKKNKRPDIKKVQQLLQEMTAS
Compound,DC50 (IRAK4 [1]) [nM],IC50 (IL-6) [nM],DC50 (IRAK4 [2]; [3]) [nM],"DC50 (IRAK4 [2]; 20 hr, flow assay, read-out: IRAK4 degradation in hPBMC monocyte at 20 hr: Average external Abs DC50) [nM]"
C[C@H]1CN(c2ccn3ncc(C(=O)NC4=NC([C@H]5CC[C@H](CN6CCC(CCCc7cccc8c7n(C)c(=O)n8C7CCC(=O)NC7=O)CC6)CC5)N=C4C(F)F)c3n2)C[C@H](C)O1 (some centres unmarked) [I-543],10 to 100,< 1,< 10,
C[C@H]1CN(c2ccn3ncc(C(=O)NC4=NC([C@H]5CC[C@H](CN6CCC(CC#Cc7cccc8c7n(C)c(=O)n8C7CCC(=O)NC7=O)CC6)CC5)N=C4C(F)F)c3n2)C[C@H](C)O1 (some centres unmarked) [I-549],10 to 100,1 to 10,< 10,
Cn1c(=O)n(C2CCC(=O)NC2=O)c2cccc(CN3CC4(CCN(Cc5ccc(-n6cc(NC(=O)c7cnn8ccc(N9C[C@H]%10C[C@@H]9CO%10)nc78)c(C(F)F)n6)cc5)CC4)C3)c21 (some centres unmarked) [I-464],10 to 100,1 to 10,10 to 100,
Cn1c(=O)n(C2CCC(=O)NC2=O)c2cccc(CCCCN3CCN(C[C@H]4CC[C@H](n5cc(NC(=O)c6cnn7ccc(N8C[C@H]9C[C@@H]8CO9)nc67)c(C(F)F)n5)CC4)CC3)c21 (some centres unmarked) [I-471],< 10,< 1,< 10,
Cn1c(=O)n(C2CCC(=O)NC2=O)c2cccc(CCOC3CC4(CCN(C[C@H]5CC[C@H](n6cc(NC(=O)c7cnn8ccc(N9C[C@H]%10C[C@@H]9CO%10)nc78)c(C(F)F)n6)CC5)CC4)C3)c21 (some centres unmarked) [I-469],< 10,< 1,< 10,
C[C@@H]1CN(c2ccn3ncc(C(=O)NC4=NC([C@H]5CC[C@H](CN6CCC(CC#Cc7cccc8c7n(C)c(=O)n8C7CCC(=O)NC7=O)CC6)CC5)N=C4C(F)F)c3c2)C[C@H](C)O1 (some centres unmarked) [I-530],10 to 100,< 1,< 10,
Cn1c(=O)n(C2CCC(=O)NC2=O)c2cccc(C#CCOC3CCN(C[C@H]4CC[C@H](n5cc(NC(=O)c6cnn7ccc(N8C[C@H]9CC[C@@H](C8)O9)nc67)c(C(F)F)n5)CC4)CC3)c21 (some centres unmarked) [I-547],< 10,1 to 10,< 10,
C[C@@H]1CN(c2ccn3ncc(C(=O)Nc4cn([C@H]5CC[C@H](CN6CCC(CCCc7cccc8c7n(C)c(=O)n8C7CCC(=O)NC7=O)CC6)CC5)nc4C(F)F)c3n2)C[C@H](C)O1 (some centres unmarked) [I-540],10 to 100,1 to 10,< 10,
Cn1c(=O)n(C2CCC(=O)NC2=O)c2cccc(CCCCN3CCN(C(=O)[C@H]4CC[C@H](n5cc(NC(=O)c6cnn7ccc(N8C[C@H]9C[C@@H]8CO9)nc67)c(C(F)F)n5)CC4)CC3)c21 (some centres unmarked) [I-472],< 10,< 1,< 10,
C[C@@H]1CN(c2ccn3ncc(C(=O)NC4=NC([C@H]5CC[C@H](CN6CCC(CC#Cc7cccc8c7n(C)c(=O)n8C7CCC(=O)NC7=O)CC6)CC5)N=C4C(F)F)c3c2)C[C@@H](C)O1 (some centres unmarked) [I-528],10 to 100,1 to 10,< 10,
Cn1c(=O)n(C2CCC(=O)NC2=O)c2cccc(CC3CC4(CCN(Cc5ccc(-n6cc(NC(=O)c7cnn8ccc(N9C[C@H]%10C[C@@H]9CO%10)nc78)c(C(F)F)n6)cc5)CC4)C3)c21 (some centres unmarked) [I-466],100 to 1000,1 to 10,< 10,
Cn1c(=O)n(C2CCC(=O)NC2=O)c2cccc(CCC(=O)N3CCC4(CCN(C[C@H]5CC[C@H](n6cc(NC(=O)c7cnn8ccc(N9C[C@H]%10C[C@@H]9CO%10)nc78)c(C(F)F)n6)CC5)CC4)CC3)c21 (some centres unmarked) [I-467],< 10,< 1,< 10,
C[C@@H]1CN(c2ccn3ncc(C(=O)NC4=NC([C@H]5CC[C@H](CN6CCC(CCCc7cccc8c7n(C)c(=O)n8C7CCC(=O)NC7=O)CC6)CC5)N=C4C(F)F)c3n2)C[C@@H](C)O1 (some centres unmarked) [I-537],< 10,1 to 10,< 10,
Cn1c(=O)n(C2CCC(=O)NC2=O)c2cccc(CN3CCC4(CC3)CCN(C(=O)c3ccc(C5N=C(NC(=O)c6cnn7ccc(N8C[C@H]9C[C@@H]8CO9)nc67)C(C(F)F)=N5)cc3)CC4)c21 (some centres unmarked) [I-432],,1 to 10,,< 10
